Series [1] in a line: The drug is tested on Collinsella intestinalis strain: DSM13280 for biotransformation. The drug concentrations were measured before and after a 12-h incubation by liquid-chromatography-coupled mass spectrometry (LC–MS). As to conditions: 2 µM.
A short description of series [2]: The drug is tested on Bacteroides caccae strain: ATCC43185 for biotransformation. The drug concentrations were measured before and after a 12-h incubation by liquid-chromatography-coupled mass spectrometry (LC–MS). The note with it: 2 µM.
The nature of series [3]: The drug is tested on Bacteroides cellulosilyticus strain: DSM14838 for biotransformation. The drug concentrations were measured before and after a 12-h incubation by liquid-chromatography-coupled mass spectrometry (LC–MS). As to conditions: 2 µM.
Series [4] can be described thus: The drug is tested on Bacteroides finegoldii strain: DSM17565 for biotransformation. The drug concentrations were measured before and after a 12-h incubation by liquid-chromatography-coupled mass spectrometry (LC–MS). The note with it: 2 µM.
The nature of series [5]: The drug is tested on Bacteroides fragilis strain: ATCC43859 for biotransformation. The drug concentrations were measured before and after a 12-h incubation by liquid-chromatography-coupled mass spectrometry (LC–MS). As to conditions: 2 µM.
A short description of series [6]: The drug is tested on Parabacteroides merdae strain: ATCC43184 for biotransformation. The drug concentrations were measured before and after a 12-h incubation by liquid-chromatography-coupled mass spectrometry (LC–MS). As to conditions: 2 µM.
Series [7] is described as follows: The drug is tested on Anaerotruncus colihominis strain: DSM17241 for biotransformation. The drug concentrations were measured before and after a 12-h incubation by liquid-chromatography-coupled mass spectrometry (LC–MS). As to conditions: 2 µM.
Series [8] can be described thus: The drug is tested on Blautia luti strain: DSM14534 for biotransformation. The drug concentrations were measured before and after a 12-h incubation by liquid-chromatography-coupled mass spectrometry (LC–MS). Also on record: dose 2 uM, timepoint 0 vs 12 hours. It counts as ADME. As to conditions: 2 µM.
Series [9] can be described thus: The drug is tested on Clostridium sp. strain: fecal isolate for biotransformation. The drug concentrations were measured before and after a 12-h incubation by liquid-chromatography-coupled mass spectrometry (LC–MS). As to conditions: 2 µM.
Series [10] is described as follows: The drug is tested on Clostridium scindens strain: ATCC35704 for biotransformation. The drug concentrations were measured before and after a 12-h incubation by liquid-chromatography-coupled mass spectrometry (LC–MS). The note with it: 2 µM.
The nature of series [11]: The drug is tested on Clostridium sporogenes strain: ATCC15579 for biotransformation. The drug concentrations were measured before and after a 12-h incubation by liquid-chromatography-coupled mass spectrometry (LC–MS). The note with it: 2 µM.
Series [12] in a line: The drug is tested on Ruminococcus gnavus strain: ATCC29149 for biotransformation. The drug concentrations were measured before and after a 12-h incubation by liquid-chromatography-coupled mass spectrometry (LC–MS). The note with it: mediterraneibacter gnavus, 2 µM.
Series [13] can be described thus: The drug is tested on Subdoligranulum variabile strain: DSM15176 for biotransformation. The drug concentrations were measured before and after a 12-h incubation by liquid-chromatography-coupled mass spectrometry (LC–MS). As to conditions: 2 µM.
A short description of series [14]: The drug is tested on Edwardsiella tarda strain: ATCC23685 for biotransformation. The drug concentrations were measured before and after a 12-h incubation by liquid-chromatography-coupled mass spectrometry (LC–MS). The note with it: 2 µM.
The nature of series [15]: The drug is tested on Enterobacter cancerogenus strain: ATCC35316 for biotransformation. The drug concentrations were measured before and after a 12-h incubation by liquid-chromatography-coupled mass spectrometry (LC–MS). The note with it: 2 µM.
Series [16] is described as follows: The drug is tested on Providencia rettgeri strain: DSM1131 for biotransformation. The drug concentrations were measured before and after a 12-h incubation by liquid-chromatography-coupled mass spectrometry (LC–MS). Type of series: ADME. Also on record: dose 2 uM, timepoint 0 vs 12 hours. As to conditions: 2 µM.
The conditions of series [17]: bacteroides stercoris, 12 h, 2 µM.
Description: The drug is tested on Bacteroides stercoris strain: ATCC43183 for biotransformation. The drug concentrations were measured before and after a 12-h incubation by liquid-chromatography-coupled mass spectrometry (LC–MS)
For series [18] the following is noted: bacteroides thetaiotaomicron, 12 h, 2 µM.
Description: The drug is tested on Bacteroides thetaiotaomicron strain: 3731 for biotransformation. The drug concentrations were measured before and after a 12-h incubation by liquid-chromatography-coupled mass spectrometry (LC–MS)
The conditions of series [19]: parabacteroides distasonis, 12 h, 2 µM.
Description: The drug is tested on Parabacteroides distasonis strain: ATCC8503 for biotransformation. The drug concentrations were measured before and after a 12-h incubation by liquid-chromatography-coupled mass spectrometry (LC–MS)
Series [20] is described as follows: The drug is tested on Anaerococcus hydrogenalis strain: DSM7454 for biotransformation. The drug concentrations were measured before and after a 12-h incubation by liquid-chromatography-coupled mass spectrometry (LC–MS). As to conditions: 2 µM.

On to `CSc1ccc2c(c1)C(N1CCN(C)CC1)Cc1ccccc1S2.O=C(O)/C=C\C(=O)O` (stereo not drawn), for which the “Bacterial Biotransformation” value in series [1], in series [2], in series [3], in series [4], in series [5] and in series [6] was “Compound NOT metabolized” throughout. Further, the “Bacterial Biotransformation” value was “Compound metabolized” in [7]; “Compound NOT metabolized” in series [8]; “Compound NOT metabolized” in series [9]; “Compound metabolized” in [10]; “Compound metabolized” in series [11]; “Compound NOT metabolized” in series [12]. The “Bacterial Biotransformation” value in series [13], in series [14], in [15], in series [16], in series [17] and in [18] was “Compound NOT metabolized” in each case. Besides, the “Bacterial Biotransformation” value in series [19] was “Compound metabolized”.

Consider `CCc1oc2ccccc2c1C(=O)c1cc(Br)c(O)c(Br)c1` [BENZBROMARONE], for which the “Bacterial Biotransformation” value in series [2], in series [3], in series [4], in series [5], in [6] and in series [20] was “Compound NOT metabolized” each time. Further, the “Bacterial Biotransformation” value in series [7], in series [8], in series [9], in series [10], in [11] and in series [12] was “Compound NOT metabolized” in each case. The “Bacterial Biotransformation” value in series [13], in series [14], in [15], in [16], in [17] and in series [18] was “Compound NOT metabolized” each time. Moreover, the “Bacterial Biotransformation” value in series [19] is reported as “Compound NOT metabolized”.

`COC(=O)[C@H](c1ccccc1Cl)N1CCc2sccc2C1.O=S(=O)(O)O` [CLOPIDOGREL BISULFATE]: the “Bacterial Biotransformation” value in series [1] was “Compound NOT metabolized”; in series [2], “Compound NOT metabolized”; in series [3], “Compound NOT metabolized”; in series [5], “Compound metabolized”; in [6], “Compound metabolized”; in series [20], “Compound NOT metabolized”. Besides, the “Bacterial Biotransformation” value in series [7] is recorded as “Compound NOT metabolized”; in [8], “Compound NOT metabolized”; in series [9] it was “Compound metabolized”; in [10] it was “Compound NOT metabolized”; in series [11], “Compound metabolized”; in series [12], “Compound NOT metabolized”. Moreover, the “Bacterial Biotransformation” value in series [13] was “Compound NOT metabolized”; in [14] it was “Compound NOT metabolized”; in series [15], “Compound NOT metabolized”; in series [16], “Compound NOT metabolized”; in series [17] it was “Compound metabolized”; in series [18], “Compound NOT metabolized”. Moreover, the “Bacterial Biotransformation” value in series [19] is recorded as “Compound metabolized”.

Consider `CNC(=C[N+](=O)[O-])NCCSCc1ccc(CN(C)C)o1` [RANITIDINE], for which the “Bacterial Biotransformation” value was “Compound metabolized” in series [1]; “Compound metabolized” in series [3]; “Compound NOT metabolized” in [5]; “Compound NOT metabolized” in series [6]; “Compound metabolized” in series [20]; “Compound metabolized” in series [7]. Also, the “Bacterial Biotransformation” value in series [8] is “Compound metabolized”; in [9], “Compound metabolized”; in series [10], “Compound metabolized”; in series [11], “Compound NOT metabolized”; in [12], “Compound metabolized”; in series [13], “Compound metabolized”. The “Bacterial Biotransformation” value in series [14], in series [15], in series [16], in series [17], in series [18] and in [19] was “Compound NOT metabolized” each time.

In the case of `COc1ccc2[nH]c([S+]([O-])Cc3ncc(C)c(OC)c3C)nc2n1` (stereo not drawn) [TENATOPRAZOLE], the “Bacterial Biotransformation” value in [1], in [2], in [3], in [4], in series [5] and in series [6] was “Compound metabolized” each time. The “Bacterial Biotransformation” value in series [20], in series [8], in series [9], in [10], in series [11] and in series [12] was “Compound metabolized” each time. Moreover, the “Bacterial Biotransformation” value in [13], in series [14], in [15], in series [16], in [17] and in series [18] was “Compound metabolized” in each case. In series [19], the “Bacterial Biotransformation” value is “Compound metabolized”.

Turning to `CCS(=O)(=O)CCn1c([N+](=O)[O-])cnc1C` [TINIDAZOLE], the “Bacterial Biotransformation” value in series [1], in series [2], in [3], in [4], in series [5] and in series [6] was “Compound metabolized” throughout. For the same compound, the “Bacterial Biotransformation” value in series [20], in series [7], in [8], in series [9], in series [10] and in series [11] was “Compound metabolized” in each case. In addition, the “Bacterial Biotransformation” value was “Compound metabolized” in series [12]; “Compound metabolized” in [13]; “Compound NOT metabolized” in series [15]; “Compound NOT metabolized” in series [16]; “Compound metabolized” in series [17]; “Compound metabolized” in series [18]. The “Bacterial Biotransformation” value in [19] is “Compound metabolized”.

The values are drawn from ChEMBL document CHEMBL5303573, “Mapping human microbiome drug metabolism by gut bacteria and their genes” (Nature, 2019).
